In patent EP4810489A1, “SUBSTITUTED 2-(PYRROLIDIN-3-YL)ACETIC ACID DERIVATIVE, PREPARATION METHOD THEREFOR AND USE THEREOF” (Innovstone Therapeutics Limited, priority 2023, dated 2025):

Tests used:
Lp(a) assembly = target: T1, Lp(a) assembly (Homo sapiens, UniProt P08519); experiment: ELISA assay on screening Lp(a) assembly inhibition; format: cell-based; details: HepG2 cells overexpressing ApoA protein, 24h incubation, ELISA of culture supernatant
T1 construct: expressed in transfected cells; host or cells: HepG2 cells overexpressing apo(a)
Method: Test Example 1 and Methods of ELISA Assay on Screening Lp(a) Assembly Inhibition
1. Reagents, Consumables, Instruments
2. Cell Culture Media Preparation 2.1. Complete Cell Culture Media
3. Test Procedure • 3.1 Cell Culture and Passage • 1) Preheated the culture media, DPBS, and pancreatin in a 37°C water bath in advance. • 2) Digested cells with pancreatin, transferred the cell suspension to a 15 mL centrifuge tube, and centrifuged at 1000 rpm for 5 min. • 3) Resuspended the cells with culture media and transferred the cell suspension to a new T75 cell culture flask. • 4) Cultured at 37°C in a 5% CO2 incubator. • 3.2. Cell Seeding and Drug Administration • 1) Seeded HepG2 cells overexpressing of ApoA protein into a 96-well plate at 100 µL per well and incubated overnight for attachment. • 2) Replaced with fresh culture media the next day, then added diluted compounds, and cultured the cell plate in a 5% CO2, 37°C incubator for 24h. • 3.3. Preparation of Cell Culture Supernatant • 1) Added 10 µL of 1.5 M EACA to each well. • 2) Centrifuged at 1000 rpm for 1 min, and transferred 100 µL of cell culture supernatant to a pre-coated ELISA plate. • 3.4. […]

[1] = Safety assessment test in rats; format: in vivo, SD rats; details: oral gavage, 300 mg/kg and 1000 mg/kg once daily for 14 consecutive days
Method: Test Example 5 and Safety Assessment Test in Rats
The safety of the compounds of the present invention was evaluated by oral gavage administration to SD rats as the test animals.
Test method: 50 SD rats (half males and half females) were randomly divided into vehicle control group and test article group according to their body weight. The vehicle saline or the compound of the present invention or LY3473329 (300 mg/kg, 1000 mg/kg) was administered orally once daily for 14 consecutive days.

Lp(a) = experiment: Humanized mouse Lp(a) inhibition test; format: in vivo, humanized Lp(a) transgenic mouse; details: oral, 5 mg/kg once daily for 3 consecutive days, blood 8 h after last dose
Method: Test Example 3 and Humanized Mouse Lp(a) Inhibition Test
The in vivo pharmacodynamics of the compounds in reducing Lp(a) was evaluated in a humanized Lp(a) transgenic mouse model.Lp(a) mice were obtained by crossing mice expressing humanized apoB-100 with mice expressing humanized apo(a) containing 16 Kringle repeats.Female mice aged 8-9 weeks were selected for the test.Housing conditions: standard light cycle (12 h light/12 h dark), temperature 20-25°C, humidity 40-70%, free access to water and normal diet.
One day before the test, mice were divided into vehicle control group and test article group (n=5/group) according to body weight and baseline plasma Lp(a) concentration. […] Eight hours after the last dose, 10 µL of blood was collected from the tail vein and transferred to a 1.5 mL centrifuge tube containing 90 µL of normal saline, mixed well, and left to stand on ice for 30min.The above samples were centrifuged at 4°C, 3000 rpm for 10 min, and the supernatant was collected and placed on ice.The Lp(a) concentration in the supernatant was measured by double-antibody sandwich ELISA using an anti-apo(a) capture antibody and an HRP-conjugated anti-ApoB detection antibody, with TMB for color development. The reaction was stopped with 1 N sulfuric acid, and the OD value was read at 450 nm on a Tecan microplate reader.Inhibition rate was calculated for each dosing group. […]

T1 sequence (P08519 20-2040): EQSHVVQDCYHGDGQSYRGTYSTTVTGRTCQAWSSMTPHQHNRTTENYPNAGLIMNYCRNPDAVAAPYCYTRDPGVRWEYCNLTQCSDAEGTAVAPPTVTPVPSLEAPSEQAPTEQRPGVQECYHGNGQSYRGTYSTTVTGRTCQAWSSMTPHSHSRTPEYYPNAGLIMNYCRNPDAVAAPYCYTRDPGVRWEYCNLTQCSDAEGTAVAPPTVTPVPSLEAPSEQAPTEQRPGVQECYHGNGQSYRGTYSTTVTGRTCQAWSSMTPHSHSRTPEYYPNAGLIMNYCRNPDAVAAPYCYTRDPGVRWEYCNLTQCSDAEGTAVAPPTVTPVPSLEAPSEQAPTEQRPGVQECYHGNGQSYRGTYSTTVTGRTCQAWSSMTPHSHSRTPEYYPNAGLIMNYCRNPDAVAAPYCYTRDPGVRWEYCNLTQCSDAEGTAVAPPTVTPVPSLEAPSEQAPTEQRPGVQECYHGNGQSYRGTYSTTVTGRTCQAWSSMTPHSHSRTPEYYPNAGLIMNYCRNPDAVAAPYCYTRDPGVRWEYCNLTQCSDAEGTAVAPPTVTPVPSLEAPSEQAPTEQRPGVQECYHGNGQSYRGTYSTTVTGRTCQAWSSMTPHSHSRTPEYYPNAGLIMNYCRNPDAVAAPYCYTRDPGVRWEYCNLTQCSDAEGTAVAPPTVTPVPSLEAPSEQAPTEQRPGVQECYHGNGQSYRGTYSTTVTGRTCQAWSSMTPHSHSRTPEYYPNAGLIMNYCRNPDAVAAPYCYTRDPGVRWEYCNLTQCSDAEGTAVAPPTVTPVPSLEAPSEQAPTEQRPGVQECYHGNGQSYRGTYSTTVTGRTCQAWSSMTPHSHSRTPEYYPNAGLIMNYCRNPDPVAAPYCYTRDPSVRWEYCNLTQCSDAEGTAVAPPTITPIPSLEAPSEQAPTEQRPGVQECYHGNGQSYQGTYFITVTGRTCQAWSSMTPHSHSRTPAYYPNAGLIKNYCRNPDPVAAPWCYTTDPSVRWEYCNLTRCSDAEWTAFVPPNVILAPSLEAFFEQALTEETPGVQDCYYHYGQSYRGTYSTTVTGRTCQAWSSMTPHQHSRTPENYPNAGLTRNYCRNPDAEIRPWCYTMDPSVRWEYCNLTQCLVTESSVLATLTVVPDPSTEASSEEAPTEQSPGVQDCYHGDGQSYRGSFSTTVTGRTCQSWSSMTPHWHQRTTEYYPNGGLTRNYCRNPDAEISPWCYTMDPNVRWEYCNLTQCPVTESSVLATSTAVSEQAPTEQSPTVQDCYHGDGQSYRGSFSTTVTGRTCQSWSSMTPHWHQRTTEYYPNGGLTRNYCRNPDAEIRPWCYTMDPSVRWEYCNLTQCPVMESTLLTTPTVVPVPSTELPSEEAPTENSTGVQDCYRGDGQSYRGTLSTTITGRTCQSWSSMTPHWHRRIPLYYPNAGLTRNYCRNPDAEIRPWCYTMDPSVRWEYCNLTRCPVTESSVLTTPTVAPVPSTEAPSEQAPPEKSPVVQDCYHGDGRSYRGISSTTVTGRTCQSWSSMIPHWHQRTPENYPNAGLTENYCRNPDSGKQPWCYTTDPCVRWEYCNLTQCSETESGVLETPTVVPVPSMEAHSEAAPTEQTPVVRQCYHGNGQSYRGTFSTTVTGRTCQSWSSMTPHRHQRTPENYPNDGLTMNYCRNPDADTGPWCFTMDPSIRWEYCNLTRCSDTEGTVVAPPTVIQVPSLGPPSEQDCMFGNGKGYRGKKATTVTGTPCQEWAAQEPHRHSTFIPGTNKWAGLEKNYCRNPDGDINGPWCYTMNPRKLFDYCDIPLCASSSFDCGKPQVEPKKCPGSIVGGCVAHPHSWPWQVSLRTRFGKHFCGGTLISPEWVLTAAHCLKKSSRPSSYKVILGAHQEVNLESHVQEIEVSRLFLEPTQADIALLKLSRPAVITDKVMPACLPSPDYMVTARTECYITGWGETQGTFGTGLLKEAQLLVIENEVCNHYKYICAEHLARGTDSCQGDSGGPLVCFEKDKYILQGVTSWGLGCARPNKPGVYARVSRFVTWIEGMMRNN

SMILES | IC50 (Lp(a) assembly) [nM] | changes in clinical observation, body weight and weight gain, food consumption, hematology, blood biochemistry, urine, organ weight and coefficients, and histopathology [1] | Lp(a) Inhibition Rate (Lp(a)) [%]
O=C(O)[C@@H](Cc1ccc2c(CN(Cc3n[nH]c4cc(C[C@H](C(=O)O)[C@H]5CCNC5)ccc34)Cc3n[nH]c4cc(C[C@H](C(=O)O)[C@H]5CCNC5)ccc34)n[nH]c2c1)[C@H]1CCNC1 [Compound 136] | 2.16 | – | –
O=C(O)[C@@H](Cc1cccc(CN(Cc2cccc(C[C@H](C(=O)O)[C@H]3CCNC3)c2)Cc2cccc(C[C@H](C(=O)O)[C@H]3CCNC3)c2)c1)[C@H]1CCNC1 [LY3473329] | 1.05 | no changes | 56
